Each structure is given as a SMILES string.

As a reminder, the Papp A→B is the apparent permeability from the apical to the basolateral side of a cell layer. Higher therefore signals fast passage.

One data set deals with T1, HDAC5 (Homo sapiens, UniProt Q9UQL6).
T1 construct: HDAC5 (αα 657–1123; cat # 50005); purchased BPS Bioscience (San Diego, CA) 50005
Briefly: Two-step fluorogenic deacetylase assay, recombinant HDAC5. It is filed as biochemical. The settings on record: up to 50 µM. An excerpt:
(§1) To assess the biochemical and cellular potency of 4b and its conversion products/metabolites, we utilized the two-step fluorogenic assay which measures the HDAC-mediated catalytic conversion of synthetic acetylated lysine substrates. In brief, on deacetylation of the substrates by HDAC activity, a protease site is unmasked which allows subsequent trypsin-mediated cleavage and release of the highly flourescent AMC molecules in a subsequent step of the assay. The substrates used were Lys_Ac_AMC (Bachem I-1875) for HDAC3 and (Ac)Arg-Gly-Lys(Ac) (Bachem I-1925) for HDAC1 and HDAC2. […] However, the relatively labile and sterically more demanding trifluoracetyl group is readily hydrolyzed by the catalytically less avid Class IIa enzymes, allowing measurement of Class IIa activity using the 2-step fluorogenic assay. […]
(§2) For evaluation of the class selectivity of the compounds, we assessed inhibition against purified recombinant human full length HDAC1 (cat# 50051), HDAC2 (cat# 50052), HDAC3-NcoR2 (cat# 50003) and HDAC8 (cat# 50008): as representative of Class I activity; catalytic domain HDAC4(αα 648–1057), HDAC5 (αα 657–1123; cat # 50005), HDAC7 (αα 518-end; cat # 50007) and HDAC9 (αα 604–1066; cat # 50009) activity: representing all Class IIa activity; and full length HDAC6 (cat#50006): representing Class IIb activity. […]

Another data set addresses T2, HDAC9 (Homo sapiens, UniProt Q9UKV0).
T2 construct: HDAC9 (αα 604–1066; cat # 50009); purchased BPS Bioscience (San Diego, CA) 50009
Nature of the data set: Two-step fluorogenic deacetylase assay, recombinant HDAC9. The settings on record: up to 50 µM. It is filed as biochemical.
Text: as §1, §2

The next data set has as its system FXN. On the set-up: method as in PMID 16921367. The settings on record: cited from earlier work.
Data set [1] can be described thus: Partition into erythrocytes. It is filed as in vitro ADME. The settings on record: mouse.
Another data set deals with T3, catalytic domain HDAC4 (Homo sapiens, UniProt P56524).
T3 construct: catalytic domain HDAC4(αα 648–1057); purchased Emerald Biosciences (Seattle, WA)
T3 sequence (P56524 648-1057): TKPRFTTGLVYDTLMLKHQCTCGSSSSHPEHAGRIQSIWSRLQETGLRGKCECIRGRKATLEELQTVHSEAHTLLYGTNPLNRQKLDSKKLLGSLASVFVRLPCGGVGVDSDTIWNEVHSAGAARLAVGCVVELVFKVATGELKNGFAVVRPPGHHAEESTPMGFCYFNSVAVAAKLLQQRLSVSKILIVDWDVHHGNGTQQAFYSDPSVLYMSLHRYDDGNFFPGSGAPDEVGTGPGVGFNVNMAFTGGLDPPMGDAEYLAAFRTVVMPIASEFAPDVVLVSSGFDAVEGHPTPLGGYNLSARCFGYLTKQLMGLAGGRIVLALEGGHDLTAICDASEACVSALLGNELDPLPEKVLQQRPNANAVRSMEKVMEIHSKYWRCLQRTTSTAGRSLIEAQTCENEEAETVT
Briefly: Two-step fluorogenic deacetylase assay, recombinant HDAC4. It is filed as biochemical. The conditions noted are these: up to 50 µM.
Text: as §1, §2

Data set [2] can be described thus: Permeability and efflux in Caco2 monolayers. It is filed as in vitro ADME. The settings on record: human. On the procedure:
Caco-2 cells (obtained from ECACC) were used after a 21-day cell culture period in 24-well Transwell plates (seeding density of 2×10^5 cells/well). Test compounds (10 µM) were dissolved in Hanks’ Balanced Salt Solution (HBSS) containing 25 mM HEPES (pH 7.4) and added to either the apical or basolateral chambers of a Transwell plate assembly. Duplicate wells were prepared per assay condition. Lucifer Yellow was added to the apical buffer in all wells to assess integrity of the cell layers by monitoring Lucifer Yellow permeation. As Lucifer Yellow (LY) cannot freely permeate lipophilic barriers, a high degree of LY transport indicates poor integrity of the cell layer.
After 1 hr incubation at 37°C, aliquots were taken from the acceptor chamber of each Transwell and added to acetonitrile containing analytical internal standard (carbamazepine) in a 96 well plate. Concentrations of test compound in the samples were measured by high performance liquid-chromatography/mass spectroscopy (LC-MS/MS).
Apparent permeability (Papp) values were calculated from the relationship: [drawing 4] […]
Acceptor = Chamber of Transwell in to which permeation of compound is measured: basal for A>B experiments and apical for B>A experiments.
The Efflux ratios, as an indication of active efflux from the apical cell surface, were calculated using the ratio of Papp B>A/Papp A>B.
A general note: Caco-2 cells form a polarised layer with tight junctions and transporters.

T2 sequence (Q9UKV0 604-1066 isoform Q9UKV0-5): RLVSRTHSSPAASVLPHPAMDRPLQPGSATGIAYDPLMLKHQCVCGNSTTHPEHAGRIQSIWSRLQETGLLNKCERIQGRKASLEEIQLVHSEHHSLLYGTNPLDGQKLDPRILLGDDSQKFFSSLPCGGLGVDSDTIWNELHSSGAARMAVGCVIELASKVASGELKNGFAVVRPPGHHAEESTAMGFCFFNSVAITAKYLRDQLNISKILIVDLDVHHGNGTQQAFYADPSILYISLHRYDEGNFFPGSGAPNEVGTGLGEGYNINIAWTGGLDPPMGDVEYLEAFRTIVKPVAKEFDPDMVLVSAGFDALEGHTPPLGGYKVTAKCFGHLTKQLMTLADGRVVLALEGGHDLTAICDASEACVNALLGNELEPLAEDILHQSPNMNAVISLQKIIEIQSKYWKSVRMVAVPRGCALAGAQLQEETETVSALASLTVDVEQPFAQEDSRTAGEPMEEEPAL
T1 sequence (Q9UQL6 656-1122): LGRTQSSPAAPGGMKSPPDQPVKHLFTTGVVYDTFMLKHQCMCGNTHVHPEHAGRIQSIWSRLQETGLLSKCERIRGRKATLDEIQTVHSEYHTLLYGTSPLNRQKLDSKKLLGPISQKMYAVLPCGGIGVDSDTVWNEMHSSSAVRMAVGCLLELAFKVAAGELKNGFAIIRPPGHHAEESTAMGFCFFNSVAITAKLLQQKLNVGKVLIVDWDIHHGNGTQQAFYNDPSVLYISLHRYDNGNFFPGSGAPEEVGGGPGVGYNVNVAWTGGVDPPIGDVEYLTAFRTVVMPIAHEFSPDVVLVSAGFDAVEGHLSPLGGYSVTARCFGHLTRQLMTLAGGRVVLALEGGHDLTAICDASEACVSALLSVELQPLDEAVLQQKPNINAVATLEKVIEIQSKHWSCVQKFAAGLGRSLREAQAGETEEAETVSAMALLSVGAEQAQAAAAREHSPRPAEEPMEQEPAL

For the compound `Nc1ccccc1NC(=O)CCCCCC(=O)Nc1ccccc1` [Compound 4b], the “activity against HDAC5” value on HDAC5 is given as “No activity”. Further, the “activity against HDAC9” value on HDAC9 is listed as “No activity”. The “increase in FXN protein levels” value with FXN (at 2.5 µM) is 3.5 fold. In the data set on FXN (at 5 µM), the “enhancement of FXN mRNA” value is reported as 2.5 fold. In addition, the “concentrations in whole blood relative to plasma” value in data set [1] was “approximately 4 times”. For the same compound, the blood plasma ratio in data set [1] (whole blood, data not shown) was approximately 3. Further, the “activity against HDAC4” value at catalytic domain HDAC4 is on record as “No activity”. In data set [2] (Caco-2, pH 7.4), this compound gave a Papp A→B at 1 h, 10 µM of 156 nm/s. Besides, the efflux ratio at 1 h, 10 µM in data set [2] (Caco-2, pH 7.4, read-out: effective efflux ratio) was determined as 3.5.
